From publication PMC3933419, “Synthesis and Properties of a Selective Inhibitor of Homeodomain–Interacting Protein Kinase 2 (HIPK2)” (PLoS ONE, 2014)

What was measured:
Assay type in all cases: biochemical
PKA = PKA (Homo sapiens, UniProt P17612); assay: Kinase panel selectivity profiling; details: TBID 1 μM, 125 kinase panel, read-out: % activity of the enzyme
Excerpt: (§1) The source of HIPK2 and of all of the other protein kinases used for specificity assays is as described elsewhere.
(§2) Conditions for the activity assays of all other protein kinases tested in selectivity experiments are as described or referenced in [9].

EIF2AK3 = EIF2AK3 (Homo sapiens, UniProt Q9NZJ5); assay: Kinase panel selectivity profiling; details: TBID 1 μM, 125 kinase panel, read-out: % activity of the enzyme
Excerpt: as §1, §2

GCK = GCK (Homo sapiens, UniProt Q12851); assay: Kinase panel selectivity profiling; details: TBID 1 μM, 125 kinase panel, read-out: % activity of the enzyme
GCK, sequence (Q12851 whole entry): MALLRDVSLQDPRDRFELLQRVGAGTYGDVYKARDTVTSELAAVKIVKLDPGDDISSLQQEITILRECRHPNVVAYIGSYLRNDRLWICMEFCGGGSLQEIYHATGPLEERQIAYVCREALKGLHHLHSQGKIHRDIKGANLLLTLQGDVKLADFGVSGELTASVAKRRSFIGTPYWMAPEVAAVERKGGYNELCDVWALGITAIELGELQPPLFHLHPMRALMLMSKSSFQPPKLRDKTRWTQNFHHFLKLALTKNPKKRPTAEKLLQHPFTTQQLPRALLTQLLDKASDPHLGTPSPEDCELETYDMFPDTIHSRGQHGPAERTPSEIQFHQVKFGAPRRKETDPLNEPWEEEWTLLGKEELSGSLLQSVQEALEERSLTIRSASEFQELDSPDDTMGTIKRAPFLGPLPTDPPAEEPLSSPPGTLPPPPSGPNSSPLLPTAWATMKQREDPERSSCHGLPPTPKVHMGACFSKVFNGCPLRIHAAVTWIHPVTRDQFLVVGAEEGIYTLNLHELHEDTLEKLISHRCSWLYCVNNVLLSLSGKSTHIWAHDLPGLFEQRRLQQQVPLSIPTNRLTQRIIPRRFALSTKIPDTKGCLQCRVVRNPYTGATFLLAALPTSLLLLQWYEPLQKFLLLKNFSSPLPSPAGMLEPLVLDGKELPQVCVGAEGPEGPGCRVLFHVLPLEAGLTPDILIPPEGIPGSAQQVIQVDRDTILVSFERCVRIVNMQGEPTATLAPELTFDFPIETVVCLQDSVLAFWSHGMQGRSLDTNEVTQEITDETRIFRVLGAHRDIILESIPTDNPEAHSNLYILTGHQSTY
Excerpt: as §1, §2

IR = IR (Homo sapiens, UniProt P06213); assay: Kinase panel selectivity profiling; details: TBID 1 μM, 125 kinase panel, read-out: % activity of the enzyme
Excerpt: as §1, §2

NEK6 = NEK6 (Homo sapiens, UniProt Q9HC98); assay: Kinase panel selectivity profiling; details: TBID 1 μM, 125 kinase panel, read-out: % activity of the enzyme
Excerpt: as §1, §2

ERK8 = ERK8 (Homo sapiens, UniProt Q8TD08); assay: Kinase panel selectivity profiling; details: TBID 1 μM, 125 kinase panel, read-out: % activity of the enzyme
Excerpt: as §1, §2

NEK2a = NEK2a (Homo sapiens, UniProt P51955); assay: Kinase panel selectivity profiling; details: TBID 1 μM, 125 kinase panel, read-out: % activity of the enzyme
Excerpt: as §1, §2

PRK2 = PRK2 (Homo sapiens, UniProt Q16513); assay: Kinase panel selectivity profiling; details: TBID 1 μM, 125 kinase panel, read-out: % activity of the enzyme
Excerpt: as §1, §2

p38g MAPK = p38g MAPK (Homo sapiens, UniProt P53778); assay: Kinase panel selectivity profiling; details: TBID 1 μM, 125 kinase panel, read-out: % activity of the enzyme
Excerpt: as §1, §2

MNK1 = MNK1 (Homo sapiens, UniProt Q9BUB5); assay: Kinase panel selectivity profiling; details: TBID 1 μM, 125 kinase panel, read-out: % activity of the enzyme
Excerpt: as §1, §2

MAPKAP-K3 = MAPKAP-K3 (Homo sapiens, UniProt Q16644); assay: Kinase panel selectivity profiling; details: TBID 1 μM, 125 kinase panel, read-out: % activity of the enzyme
Excerpt: as §1, §2

ERK1 = ERK1 (Homo sapiens, UniProt P27361); assay: Kinase panel selectivity profiling; details: TBID 1 μM, 125 kinase panel, read-out: % activity of the enzyme
Excerpt: as §1, §2

HIPK3 = HIPK3 (Homo sapiens, UniProt Q9H422); assay: Kinase panel selectivity profiling; details: TBID 1 μM, 125 kinase panel, read-out: % activity of the enzyme
HIPK3, sequence (Q9H422 whole entry): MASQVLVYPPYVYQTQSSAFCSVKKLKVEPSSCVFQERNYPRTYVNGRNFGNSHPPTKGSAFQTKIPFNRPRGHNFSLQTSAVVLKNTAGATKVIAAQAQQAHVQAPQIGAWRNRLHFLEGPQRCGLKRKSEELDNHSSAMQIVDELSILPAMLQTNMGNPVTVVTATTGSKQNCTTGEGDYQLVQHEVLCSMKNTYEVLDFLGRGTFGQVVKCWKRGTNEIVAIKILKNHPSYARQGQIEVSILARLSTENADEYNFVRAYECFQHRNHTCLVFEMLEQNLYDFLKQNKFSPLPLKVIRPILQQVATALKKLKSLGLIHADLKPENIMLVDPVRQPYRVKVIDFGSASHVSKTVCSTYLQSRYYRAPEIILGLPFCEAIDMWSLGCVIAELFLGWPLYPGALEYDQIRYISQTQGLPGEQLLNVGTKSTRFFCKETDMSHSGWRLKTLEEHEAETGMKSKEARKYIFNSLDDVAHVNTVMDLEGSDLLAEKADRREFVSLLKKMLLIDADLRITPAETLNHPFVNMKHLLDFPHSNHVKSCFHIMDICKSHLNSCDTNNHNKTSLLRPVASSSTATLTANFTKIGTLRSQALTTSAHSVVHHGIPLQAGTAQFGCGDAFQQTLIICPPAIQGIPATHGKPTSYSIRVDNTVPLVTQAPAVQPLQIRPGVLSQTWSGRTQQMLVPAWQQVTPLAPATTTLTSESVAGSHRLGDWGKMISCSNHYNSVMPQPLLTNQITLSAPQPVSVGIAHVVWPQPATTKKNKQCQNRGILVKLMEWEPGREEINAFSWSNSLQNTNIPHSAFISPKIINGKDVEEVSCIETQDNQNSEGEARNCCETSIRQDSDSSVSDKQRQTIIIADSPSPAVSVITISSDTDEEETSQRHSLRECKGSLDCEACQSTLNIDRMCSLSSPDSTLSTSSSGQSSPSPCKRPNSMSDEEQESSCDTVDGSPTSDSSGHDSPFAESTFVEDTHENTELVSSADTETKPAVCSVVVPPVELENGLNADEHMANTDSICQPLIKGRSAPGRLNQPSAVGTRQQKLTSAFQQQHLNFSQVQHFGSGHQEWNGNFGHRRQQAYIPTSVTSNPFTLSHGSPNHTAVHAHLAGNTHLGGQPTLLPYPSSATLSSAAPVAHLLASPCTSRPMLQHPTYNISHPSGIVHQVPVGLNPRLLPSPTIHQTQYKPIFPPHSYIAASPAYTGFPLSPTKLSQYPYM
Excerpt: as §1, §2

PHK = PHK (Homo sapiens, UniProt Q16816); assay: Kinase panel selectivity profiling; details: TBID 1 μM, 125 kinase panel, read-out: % activity of the enzyme
Excerpt: as §1, §2

PDK1 = PDK1 (Homo sapiens, UniProt O15530); assay: Kinase panel selectivity profiling; details: TBID 1 μM, 125 kinase panel, read-out: % activity of the enzyme
Excerpt: as §1, §2

PKCz = PKCz (Homo sapiens, UniProt Q05513); assay: Kinase panel selectivity profiling; details: TBID 1 μM, 125 kinase panel, read-out: % activity of the enzyme
Excerpt: as §1, §2

MST2 = MST2 (Homo sapiens, UniProt Q13188); assay: Kinase panel selectivity profiling; details: TBID 1 μM, 125 kinase panel, read-out: % activity of the enzyme
MST2, sequence (Q13188 whole entry): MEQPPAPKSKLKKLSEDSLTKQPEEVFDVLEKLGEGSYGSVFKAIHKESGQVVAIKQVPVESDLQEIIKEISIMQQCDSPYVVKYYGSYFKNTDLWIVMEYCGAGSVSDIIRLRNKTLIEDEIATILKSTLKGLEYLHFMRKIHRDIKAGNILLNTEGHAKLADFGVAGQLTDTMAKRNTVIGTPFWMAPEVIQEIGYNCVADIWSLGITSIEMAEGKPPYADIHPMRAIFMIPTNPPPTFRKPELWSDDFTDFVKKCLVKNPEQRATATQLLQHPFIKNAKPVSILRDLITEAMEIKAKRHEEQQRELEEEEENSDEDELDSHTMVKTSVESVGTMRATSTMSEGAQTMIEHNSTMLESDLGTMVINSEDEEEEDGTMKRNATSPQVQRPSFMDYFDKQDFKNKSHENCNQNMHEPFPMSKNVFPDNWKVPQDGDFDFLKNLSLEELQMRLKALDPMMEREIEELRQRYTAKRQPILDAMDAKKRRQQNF
Excerpt: as §1, §2

MKK2 = MKK2 (Homo sapiens, UniProt P36507); assay: Kinase panel selectivity profiling; details: TBID 1 μM, 125 kinase panel, read-out: % activity of the enzyme
MKK2, sequence (P36507 whole entry): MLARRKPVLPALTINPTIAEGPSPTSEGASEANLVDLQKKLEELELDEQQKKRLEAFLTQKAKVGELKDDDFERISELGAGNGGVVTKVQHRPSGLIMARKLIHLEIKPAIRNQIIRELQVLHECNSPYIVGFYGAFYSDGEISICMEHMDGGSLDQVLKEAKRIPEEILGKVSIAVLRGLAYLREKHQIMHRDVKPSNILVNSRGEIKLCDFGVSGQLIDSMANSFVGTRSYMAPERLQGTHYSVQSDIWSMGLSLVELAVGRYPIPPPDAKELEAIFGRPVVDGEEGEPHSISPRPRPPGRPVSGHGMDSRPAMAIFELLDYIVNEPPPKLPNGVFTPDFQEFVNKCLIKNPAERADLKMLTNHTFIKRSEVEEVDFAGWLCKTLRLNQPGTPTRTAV
Excerpt: as §1, §2

CK1 = CK1 (Homo sapiens, UniProt P48730); assay: Kinase panel selectivity profiling; details: TBID 1 μM, 125 kinase panel, read-out: % activity of the enzyme
Excerpt: as §1, §2

TrkA = TrkA (Homo sapiens, UniProt P04629); assay: Kinase panel selectivity profiling; details: TBID 1 μM, 125 kinase panel, read-out: % activity of the enzyme
Excerpt: as §1, §2

CHK2 = CHK2 (Homo sapiens, UniProt O96017); assay: Kinase panel selectivity profiling; details: TBID 1 μM, 125 kinase panel, read-out: % activity of the enzyme
CHK2, sequence (O96017 whole entry): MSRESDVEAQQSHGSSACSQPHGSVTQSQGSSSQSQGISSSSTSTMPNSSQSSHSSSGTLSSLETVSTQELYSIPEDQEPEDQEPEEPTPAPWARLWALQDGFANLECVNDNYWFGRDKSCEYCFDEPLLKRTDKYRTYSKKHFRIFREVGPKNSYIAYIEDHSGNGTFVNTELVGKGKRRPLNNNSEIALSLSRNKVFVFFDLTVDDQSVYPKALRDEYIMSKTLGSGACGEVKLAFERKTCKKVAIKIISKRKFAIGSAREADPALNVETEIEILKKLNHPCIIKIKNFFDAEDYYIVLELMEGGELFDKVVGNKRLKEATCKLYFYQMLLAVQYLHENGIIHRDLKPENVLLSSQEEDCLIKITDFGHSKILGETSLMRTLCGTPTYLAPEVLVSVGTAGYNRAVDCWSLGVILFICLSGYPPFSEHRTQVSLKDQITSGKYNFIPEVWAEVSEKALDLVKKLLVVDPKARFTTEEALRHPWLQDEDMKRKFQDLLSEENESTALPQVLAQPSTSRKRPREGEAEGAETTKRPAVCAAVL
Excerpt: as §1, §2

RIPK2 = RIPK2 (Homo sapiens, UniProt O43353); assay: Kinase panel selectivity profiling; details: TBID 1 μM, 125 kinase panel, read-out: % activity of the enzyme
Excerpt: as §1, §2

AMPK = assay: Kinase panel selectivity profiling; details: TBID 1 μM, 125 kinase panel
Excerpt: as §1, §2

CAMK1 = CAMK1 (Homo sapiens, UniProt Q14012); assay: Kinase panel selectivity profiling; details: TBID 1 μM, 125 kinase panel, read-out: % activity of the enzyme
Excerpt: as §1, §2

IRAK1 = IRAK1 (Homo sapiens, UniProt P51617); assay: Kinase panel selectivity profiling; details: TBID 1 μM, 125 kinase panel, read-out: % activity of the enzyme
IRAK1, sequence (P51617 whole entry): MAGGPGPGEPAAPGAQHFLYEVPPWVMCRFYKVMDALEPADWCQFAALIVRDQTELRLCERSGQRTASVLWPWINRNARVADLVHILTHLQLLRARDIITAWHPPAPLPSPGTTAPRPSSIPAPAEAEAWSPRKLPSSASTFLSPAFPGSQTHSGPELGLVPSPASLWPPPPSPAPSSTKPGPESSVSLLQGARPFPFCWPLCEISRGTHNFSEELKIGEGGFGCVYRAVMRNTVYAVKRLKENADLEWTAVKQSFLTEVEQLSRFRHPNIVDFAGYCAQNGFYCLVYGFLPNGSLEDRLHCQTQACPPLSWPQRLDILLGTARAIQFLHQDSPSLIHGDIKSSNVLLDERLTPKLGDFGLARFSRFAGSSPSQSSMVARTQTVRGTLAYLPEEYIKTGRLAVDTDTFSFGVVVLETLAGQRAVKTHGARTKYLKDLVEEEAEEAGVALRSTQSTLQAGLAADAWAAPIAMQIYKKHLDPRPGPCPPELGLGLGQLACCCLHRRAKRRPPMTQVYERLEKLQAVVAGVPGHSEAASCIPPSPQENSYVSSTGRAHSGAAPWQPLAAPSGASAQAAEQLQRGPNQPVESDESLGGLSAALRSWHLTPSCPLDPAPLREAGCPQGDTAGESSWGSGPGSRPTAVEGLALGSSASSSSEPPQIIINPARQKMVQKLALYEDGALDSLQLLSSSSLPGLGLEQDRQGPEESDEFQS
Excerpt: as §1, §2

NUAK1 = NUAK1 (Homo sapiens, UniProt O60285); assay: Kinase panel selectivity profiling; details: TBID 1 μM, 125 kinase panel, read-out: % activity of the enzyme
Excerpt: as §1, §2

ABL = ABL (Homo sapiens, UniProt P00519); assay: Kinase panel selectivity profiling; details: TBID 1 μM, 125 kinase panel, read-out: % activity of the enzyme
Excerpt: as §1, §2

EPH-B2 = EPH-B2 (Homo sapiens, UniProt P29323); assay: Kinase panel selectivity profiling; details: TBID 1 μM, 125 kinase panel, read-out: % activity of the enzyme
Excerpt: as §1, §2

S6K1 = S6K1 (Homo sapiens, UniProt P23443); assay: Kinase panel selectivity profiling; details: TBID 1 μM, 125 kinase panel, read-out: % activity of the enzyme
Excerpt: as §1, §2

MARK2 = MARK2 (Homo sapiens, UniProt Q7KZI7); assay: Kinase panel selectivity profiling; details: TBID 1 μM, 125 kinase panel, read-out: % activity of the enzyme
Excerpt: as §1, §2

TAO1 = TAO1 (Homo sapiens, UniProt Q7L7X3); assay: Kinase panel selectivity profiling; details: TBID 1 μM, 125 kinase panel, read-out: % activity of the enzyme
Excerpt: as §1, §2

MAPKAP-K2 = MAPKAP-K2 (Homo sapiens, UniProt P49137); assay: Kinase panel selectivity profiling; details: TBID 1 μM, 125 kinase panel, read-out: % activity of the enzyme
Excerpt: as §1, §2

PKD1 = PKD1 (Homo sapiens, UniProt Q15139); assay: Kinase panel selectivity profiling; details: TBID 1 μM, 125 kinase panel, read-out: % activity of the enzyme
Excerpt: as §1, §2

BTK = BTK (Homo sapiens, UniProt Q06187); assay: Kinase panel selectivity profiling
BTK, sequence (Q06187 whole entry): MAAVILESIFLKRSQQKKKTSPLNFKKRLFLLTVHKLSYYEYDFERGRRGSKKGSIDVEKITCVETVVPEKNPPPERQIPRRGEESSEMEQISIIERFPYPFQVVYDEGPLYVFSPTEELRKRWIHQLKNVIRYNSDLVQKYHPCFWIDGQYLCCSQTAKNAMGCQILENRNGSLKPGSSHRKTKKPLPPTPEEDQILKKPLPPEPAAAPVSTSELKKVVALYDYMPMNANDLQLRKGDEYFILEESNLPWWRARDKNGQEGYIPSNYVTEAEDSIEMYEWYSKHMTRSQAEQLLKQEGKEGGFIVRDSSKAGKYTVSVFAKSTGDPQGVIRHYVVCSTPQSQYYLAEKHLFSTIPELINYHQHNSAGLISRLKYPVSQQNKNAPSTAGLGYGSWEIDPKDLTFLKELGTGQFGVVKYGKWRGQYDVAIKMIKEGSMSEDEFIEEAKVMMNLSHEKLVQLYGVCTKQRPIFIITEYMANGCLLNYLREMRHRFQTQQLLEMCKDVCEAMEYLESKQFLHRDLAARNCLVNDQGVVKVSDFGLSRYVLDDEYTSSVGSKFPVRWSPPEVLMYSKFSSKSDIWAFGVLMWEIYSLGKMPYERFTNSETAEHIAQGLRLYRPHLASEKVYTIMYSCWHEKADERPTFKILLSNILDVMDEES
Excerpt: as §1, §2

YES1 = YES1 (Homo sapiens, UniProt P07947); assay: Kinase panel selectivity profiling; details: TBID 1 μM, 125 kinase panel, read-out: % activity of the enzyme
Excerpt: as §1, §2

CK2 = target: T1, CK2 (Rattus norvegicus, UniProt P19139); assay: CK2 phosphorylation assay; details: 20 µM ATP
T1 construct: Native CK2 and CK1 were purified from rat liver; from tissue; host or cells: rat liver
Description: Native CK2 and CK1 were purified from rat liver.
(§3) PIM1, CK2, CK1 phosphorylation assays were performed following similar procedures used for HIPK2 except that preincubation was omitted. In detail, PIM1 activity was determined at 100 µM ATP concentration and in the presence of 30 µM synthetic peptide substrate […]. CK2 and CK1 activities were assayed in a buffer containing 50 mM Tris/HCl (pH 7.5), 100 mM NaCl, 12 mM MgCl2, 100 µM specific peptide substrate […] (for CK2), or 200 µM […] (for CK1) and 20 µM [γ-^33P]ATP (500–1000 c.p.m./pmol).

PIM1 = target: T2, PIM1 (Homo sapiens, UniProt P11309); assay: PIM1 phosphorylation assay; details: 100 µM ATP
T2 construct: The source of HIPK2 and of all of the other protein kinases used for specificity assays is as described elsewhere
Description: as §3

Q: How did the activity at 1 µM (PKA) turn out when `O=C1c2c(Br)c(Br)c(Br)c(Br)c2C(=O)N1c1ncc[nH]1` [TBID, 4,5,6,7-Tetrabromo-2-(1H-imidazol-2-yl)isoindoline-1,3-dione] was run?
A: 104%

Q: What about the activity at 1 µM (EIF2AK3) of the same compound?
A: 107%

Q: And the activity at 1 µM (GCK)?
A: 100%

Q: And the activity at 1 µM (IR)?
A: 101%

Q: What about the activity at 1 µM (NEK6) of the same compound?
A: 105%

Q: And the activity at 1 µM (ERK8)?
A: 95%

Q: And the activity at 1 µM (NEK2a)?
A: 89%

Q: What about the activity at 1 µM (PRK2) of the same compound?
A: 96%

Q: What about the activity at 1 µM (p38g MAPK) of the same compound?
A: 101%

Q: And the activity at 1 µM (MNK1)?
A: 106%

Q: And the activity at 1 µM (MAPKAP-K3)?
A: 98%

Q: And the activity at 1 µM (ERK1)?
A: 98%

Q: What about the activity at 1 µM (HIPK3) of the same compound?
A: 53%

Q: And the activity at 1 µM (PHK)?
A: 116%

Q: What about the activity at 1 µM (PDK1) of the same compound?
A: 97%

Q: What about the activity at 1 µM (PKCz) of the same compound?
A: 104%

Q: And the activity at 1 µM (MST2)?
A: 90%

Q: And the activity at 1 µM (MKK2)?
A: 96%

Q: What about the activity at 1 µM (CK1) of the same compound?
A: 105%

Q: And the activity at 1 µM (TrkA)?
A: 100%

Q: What about the activity at 1 µM (CHK2) of the same compound?
A: 100%

Q: And the activity at 1 µM (RIPK2)?
A: 102%

Q: And the “% activity of the enzyme” value (AMPK)?
A: 87%

Q: And the activity at 1 µM (CAMK1)?
A: 78%

Q: And the activity at 1 µM (IRAK1)?
A: 82%

Q: And the activity at 1 µM (NUAK1)?
A: 81%

Q: And the activity at 1 µM (ABL)?
A: 99%

Q: And the activity at 1 µM (EPH-B2)?
A: 108%

Q: What about the activity at 1 µM (S6K1) of the same compound?
A: 94%

Q: What about the activity at 1 µM (MARK2) of the same compound?
A: 100%

Q: What about the activity at 1 µM (TAO1) of the same compound?
A: 110%

Q: What about the activity at 1 µM (MAPKAP-K2) of the same compound?
A: 119%

Q: And the activity at 1 µM (PKD1)?
A: 98%

Q: And the remaining activity at 10 µM (BTK; 10 µM TBID, panel of 76 protein kinases, read-out: residual activity)?
A: 29%

Q: What about the activity at 1 µM (BTK; TBID 1 μM, 125 kinase panel, read-out: % activity of the enzyme) of the same compound?
A: 84%

Q: And the activity at 1 µM (YES1)?
A: 110%

Q: And the IC50 (CK2)?
A: 5.5 µM

Q: What about the IC50 (PIM1) of the same compound?
A: > 40 µM
